Test results published in US20240182460A1, “ALLOSTERIC CHROMENONE INHIBITORS OF PHOSPHOINOSITIDE 3-KINASE (PI3K) FOR THE TREATMENT OF DISEASE” (PETRA PHARMA CORPORATION, priority 2022, published 2024).

Experiment: Metabolic stability and intrinsic clearance in human liver microsomes (MICS)
Assay type: in vitro ADME
Settings: human, microsomes, pH 7.4
Procedure: Metabolic Stability and Intrinsic Clearance in Liver Microsomes (MICS)
One objective of this assay is to measure in vitro metabolic stability of a test compound in liver microsomes of one or more different species. The concentration of a control compound in the reaction system is evaluated by LC/MS/MS for calculating intrinsic clearance of a test compound and estimating the stability of the control compound and test compound in liver microsomes of one or more different species.
Microsomes (MICS). Human Liver Microsomes (HLM), Monkey Liver Microsomes (MKLM), Dog Liver Microsomes (DLM), Rat Liver Microsomes (RLM), and Mouse Liver Microsomes (MLM) are obtained at a concentration of 20 mg/mL protein from commercial sources and stored in a −80° C. freezer. Prior to use, liver microsomes are removed from the freezer and allowed to thaw in a 37° C. water bath and then stored on wet ice.
Stock Solutions. Test Compound (TC) Stock Solutions are prepared in DMSO at a concentration of 10 mM and stored for later use. Positive Control (PC) Stock Solutions of verapamil·HCL (FW: 491.1 g/mol) in DMSO are prepared at a concentration of 10 mM (4.91 mg/mL), and stored at the condition same as the stock solutions of test compounds.
Phosphate Buffer. Phosphate Buffer (100 mM, pH 7.4) is prepared by combining a Solution A and a Solution B as follows.
To prepare Solution A, 7.098 g of disodium hydrogen phosphate was combined with 500 mL of pure water and sonicated to dissolve. To prepare the Solution B, 3.400 g of potassium dihydrogen phosphate was combined with 250 mL of pure water and sonicated to dissolve. Solution A was placed on a stirrer and Solution B was slowly added into Solution A until the pH reached 7.4.
NADPH Solution. A 10 mM NADPH Solution is prepared by dissolving NADPH (MW: 833.4 g/mol) at 8.334 mg/mL in phosphate buffer (100 mM, pH 7.4).
Microsome Master Solution. A Microsome Master Solution is prepared by adding 6.25 μL microsomes (20 mg/mL) to 216.25 μL Phosphate Buffer (100 mM). The final concentration is Phosphate Buffer (100 mM); microsomes (0.5 mg/mL).
Dilution of Stock Solutions. The TC Stock Solutions (10 mM in DMSO) and the PC Stock Solutions (10 mM in DMSO) are diluted by adding 3 μL of the TC Stock Solution or the PC Stock Solution to 297 μL of 50% acetonitrile/50% water.
Incubation. Two separated experiments were performed as follows. a) With Cofactors (NADPH): 25 μL of 10 mM NADPH was added to the incubations. The final concentrations of
microsomes and NADPH were 0.5 mg/mL and 1 mM, respectively. b) Without Cofactors (NADPH): 25 μL of 100 mM Phosphate buffer was added to the incubations. The final concentration of microsomes was 0.5 mg/mL. The mixture was pre-warmed at 37° C. for 10 minutes.
The reaction was started with the addition of 2.5 μL of 100 μM PC solution or TC solutions.
Verapamil was used as PC in this study. The final concentration of test compound or control compound was 1 μM. The incubation solution was incubated in water batch at 37° C.
Reaction Termination. Aliquots of 30 μL were taken from the reaction solution at 0.5, 5, 15, 30 and 60 minutes and added to plates. The reaction was stopped by the addition of 5 volumes of cold acetonitrile and a solution containing 100 nM alprazolam, 200 nM caffeine and 100 nM tolbutamide.
Sampling. The plates containing the terminated reactions were centrifuged at 4000 rpm for 30 minutes. Supernatant of each compound (40 μL) was transferred into a 96-well analysis plate.
Four compound samples are pooled together into one cassette and diluted by adding 160 μL of pure water. All incubations are performed in duplicate.
Analysis and Data Processing. Quantitative LC-MS analysis is performed, and peak areas are determined from extracted ion chromatograms. Percent parent remaining was calculated from peak area of TC or PC. The slope value, k, is determined by linear regression of the natural logarithm of percent parent remaining vs. incubation time curve. […]

Microsomal CLint at 1 μM, < 50 µL/min/mg:
Cc1cc([C@@H](C)Oc2ccc(Cl)nc2C(N)=O)c2oc(-c3ccc4c(c3)C(C)(C)OC(=O)N4)c(C)c(=O)c2c1 [Example 47C, 6-Chloro-3-[(1R)-1-[2-(4,4-dimethyl-2-oxo-1H-3,1-benzoxazin-6-yl)-3,6-dimethyl-4-oxo-chromen-8-yl]ethoxy]pyridine-2-carboxamide]
Cc1cc([C@@H](C)Oc2ccc(Cl)nc2S(C)(=N)=O)c2oc(-c3cnn(C)c3)c(C)c(=O)c2c1 (stereo partly drawn) [Example 147A, 8-[(1R)-1-[[6-Chloro-2-(methylsulfonimidoyl)-3-pyridyl]oxy]ethyl]-3,6-dimethyl-2-(1-methylpyrazol-4-yl)chromen-4-one]
Cc1cc([C@@H](C)Oc2ccc(Cl)nc2S(N)(=O)=O)c2oc(-c3cnn(C)c3C#N)c(C)c(=O)c2c1 [Example 21C, 6-Chloro-3-[(1R)-1-[2-(5-cyano-1-methyl-pyrazol-4-yl)-3,6-dimethyl-4-oxo-chromen-8-yl]ethoxy]pyridine-2-sulfonamide]
Cc1cc([C@@H](C)Oc2ccc(Cl)nc2-c2noc(=O)[nH]2)c2oc(-c3cnn4c3COCC4)c(C)c(=O)c2c1 [Example 41A, 3-[6-Chloro-3-[(1R)-1-[2-(6,7-dihydro-4H-pyrazolo[5,1-c][1,4]oxazin-3-yl)-3,6-dimethyl-4-oxo-chromen-8-yl]ethoxy]-2-pyridyl]-4H-1,2,4-oxadiazol-5-one]
Cc1cc([C@@H](C)Oc2ccc(Cl)nc2S(N)(=O)=O)c2oc(-c3cnn(CC4(O)CC4)c3)c(C)c(=O)c2c1 [Example 128C, 6-Chloro-3-[(1R)-1-[2-[1-[(1-hydroxycyclopropyl)methyl]pyrazol-4-yl]-3,6-dimethyl-4-oxo-chromen-8-yl]ethoxy]pyridine-2-sulfonamide]
Cc1cc([C@@H](C)Oc2ccc(Cl)nc2S(N)(=O)=O)c2oc(-c3cncnc3)c(C)c(=O)c2c1 [Example 38A, 6-Chloro-3-[(1R)-1-(3,6-dimethyl-4-oxo-2-pyrimidin-5-yl-chromen-8-yl)ethoxy]pyridine-2-sulfonamide]
Cc1cc([C@@H](C)Oc2ccc(F)c(F)c2C(N)=O)c2oc(-c3cnn(C)c3)c(C)c(=O)c2c1 [Example 31A, 6-[(1R)-1-[3,6-Dimethyl-2-(1-methylpyrazol-4-yl)-4-oxo-chromen-8-yl]ethoxy]-2,3-difluoro-benzamide]
COc1cc(-c2oc3c([C@@H](C)Oc4ccc(Cl)nc4C(N)=O)cc(C)cc3c(=O)c2C)cc2cn(C)nc12 [Example 44C, 6-Chloro-3-[(1R)-1-[2-(7-methoxy-2-methyl-indazol-5-yl)-3,6-dimethyl-4-oxo-chromen-8-yl]ethoxy]pyridine-2-carboxamide]
Cc1cc([C@@H](C)Oc2ccc(Cl)nc2S(N)(=O)=O)c2oc(-c3ccn[nH]3)c(C)c(=O)c2c1 [Example 8C, 6-Chloro-3-[(1R)-1-[3,6-dimethyl-4-oxo-2-(1H-pyrazol-5-yl)chromen-8-yl]ethoxy]pyridine-2-sulfonamide]
Cc1cc([C@@H](C)Oc2ccc(Cl)nc2C(N)=O)c2oc(-c3cc(C#N)c4nn(C)cc4c3)c(C)c(=O)c2c1 [Example 52C, 6-Chloro-3-[(1R)-1-[2-(7-cyano-2-methyl-indazol-5-yl)-3,6-dimethyl-4-oxo-chromen-8-yl]ethoxy]pyridine-2-carboxamide]
Cc1cc([C@@H](C)Oc2ccc(Cl)nc2C(N)=O)c2oc(-c3ccc4[nH]c(=O)ccc4c3)c(C)c(=O)c2c1 [Example 105A, 6-Chloro-3-[(1R)-1-[3,6-dimethyl-4-oxo-2-(2-oxo-1H-quinolin-6-yl)chromen-8-yl]ethoxy]pyridine-2-carboxamide]
Cc1cc([C@@H](C)Oc2ccc(F)nc2S(N)(=O)=O)c2oc(-c3cnc4ccoc4c3)c(C)c(=O)c2c1 [Example 73C, 6-Fluoro-3-[(1R)-1-(2-furo[3,2-b]pyridin-6-yl-3,6-dimethyl-4-oxo-chromen-8-yl)ethoxy]pyridine-2-sulfonamide]
Cc1cc([C@@H](C)Oc2ccc(Cl)nc2S(N)(=O)=O)c2oc(-c3cnc(C)o3)c(C)c(=O)c2c1 [Example 10C, 6-Chloro-3-[(1R)-1-[3,6-dimethyl-2-(2-methyloxazol-5-yl)-4-oxo-chromen-8-yl]ethoxy]pyridine-2-sulfonamide]
Cc1cc([C@@H](C)Oc2ccc(Cl)nc2C(N)=O)c2oc(-c3cnn4ncccc34)c(C)c(=O)c2c1 [Example 39C, 6-Chloro-3-[(1R)-1-(3,6-dimethyl-4-oxo-2-pyrazolo[1,5-b]pyridazin-3-yl-chromen-8-yl)ethoxy]pyridine-2-carboxamide]
Cc1cc([C@@H](C)Oc2ccc(Cl)nc2-c2noc(=O)[nH]2)c2oc(-c3cnc4scnc4c3)c(C)c(=O)c2c1 [Example 1B, 3-[6-Chloro-3-[(1R)-1-(3,6-dimethyl-4-oxo-2-thiazolo[5,4-b]pyridin-6-yl-chromen-8-yl)ethoxy]-2-pyridyl]-4H-1,2,4-oxadiazol-5-one]
Cc1cc([C@@H](C)Oc2ccc(Cl)nc2C(N)=O)c2oc(-c3cnc4nn(C)cc4c3)c(C)c(=O)c2c1 [Example 137A, 6-Chloro-3-[(1R)-1-[3,6-dimethyl-2-(2-methylpyrazolo[3,4-b]pyridin-5-yl)-4-oxo-chromen-8-yl]ethoxy]pyridine-2-carboxamide]
Cc1cc([C@@H](C)Oc2ccc(C#N)cc2C(N)=O)c2oc(-c3ccc4nn(C)cc4c3)c(C)c(=O)c2c1 [Example 108C, 5-Cyano-2-[(1R)-1-[3,6-dimethyl-2-(2-methylindazol-5-yl)-4-oxo-chromen-8-yl]ethoxy]benzamide]
Cc1cc([C@@H](C)Oc2ccc(Cl)nc2C(N)=O)c2oc(-c3cnccn3)c(C)c(=O)c2c1 [Example 78C, 6-Chloro-3-[(1R)-1-(3,6-dimethyl-4-oxo-2-pyrazin-2-yl-chromen-8-yl)ethoxy]pyridine-2-carboxamide]
Cc1cc([C@@H](C)Oc2ccc(Cl)nc2S(N)(=O)=O)c2oc(-c3cnn(C)c3)c(Cl)c(=O)c2c1 (single isomer, unassigned) [Example 111C]

Same assay, conditions: pH 7.4; human liver microsomes 0.5 mg/mL, 1 μM compound; read-out: intrinsic clearance in human MICS

Microsomal CLint at 1 μM, < 50 µL/min/mg:
Cc1cc([C@@H](C)Oc2ccccc2-c2noc(=O)[nH]2)c2oc(-c3ccccc3)c(C)c(=O)c2c1 [Example 4, 3-[2-[(1R)-1-(3,6-Dimethyl-4-oxo-2-phenyl-chromen-8-yl)ethoxy]phenyl]-4H-1,2,4-oxadiazol-5-one]
Cc1cc([C@@H](C)Oc2cccc(F)c2-c2noc(=O)[nH]2)c2oc(-c3ccccc3)c(C)c(=O)c2c1 [Example 5, 3-[2-[(1R)-1-(3,6-Dimethyl-4-oxo-2-phenyl-chromen-8-yl)ethoxy]-6-fluoro-phenyl]-4H-1,2,4-oxadiazol-5-one]
